Assays:
LRRC54 gene = assay: LRRC54 (non-genomic gene) mRNA expression, qPCR; conditions: for LRRC54 (non-genomic gene) mRNA expression, in words: MCF-7 cells, 1 μM PaPE or 10 nM E2 for 4 h where stated, versus vehicle, E2 or compound 2
From the text: (§2) Quantitation of signal intensities is shown in panel at the right.

[1] = target: T1, purified full-length human ERβ (Homo sapiens, UniProt Q92731); assay: competitive radiometric binding assay, relative binding affinity (RBA); conditions: relative to estradiol = 100
T1 construct: using purified full-length human ERα and ERβ
From the text: (§1) FIG. 1. […] […]

[2] = target: T2, purified full-length human ERα (Homo sapiens, UniProt P03372); assay: as above; conditions: relative to estradiol = 100
T2 construct: using purified full-length human ERα and ERβ
T2 sequence (P03372 1-595): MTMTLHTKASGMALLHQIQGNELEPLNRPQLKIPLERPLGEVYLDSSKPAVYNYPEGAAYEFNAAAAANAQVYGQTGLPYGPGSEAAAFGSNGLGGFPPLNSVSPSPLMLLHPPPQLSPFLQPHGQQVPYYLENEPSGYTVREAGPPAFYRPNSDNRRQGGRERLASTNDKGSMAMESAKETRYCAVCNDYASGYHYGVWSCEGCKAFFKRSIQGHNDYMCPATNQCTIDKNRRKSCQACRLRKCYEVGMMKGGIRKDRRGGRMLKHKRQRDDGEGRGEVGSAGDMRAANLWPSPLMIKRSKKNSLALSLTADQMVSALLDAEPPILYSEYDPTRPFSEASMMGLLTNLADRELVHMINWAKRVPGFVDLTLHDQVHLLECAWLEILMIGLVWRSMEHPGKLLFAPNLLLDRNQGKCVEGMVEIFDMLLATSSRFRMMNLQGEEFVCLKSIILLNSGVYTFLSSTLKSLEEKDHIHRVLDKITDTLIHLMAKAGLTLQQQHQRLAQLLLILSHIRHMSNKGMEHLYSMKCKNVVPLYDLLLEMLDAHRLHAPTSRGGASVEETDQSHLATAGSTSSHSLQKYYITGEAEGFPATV
From the text: as §1

PgR gene = assay: PgR (genomic gene) mRNA expression, qPCR; conditions: MCF-7 cells; 1 μM PaPE or 10 nM E2 for 4 h where stated; versus vehicle or E2
From the text: as §2

T1 sequence (Q92731 whole entry): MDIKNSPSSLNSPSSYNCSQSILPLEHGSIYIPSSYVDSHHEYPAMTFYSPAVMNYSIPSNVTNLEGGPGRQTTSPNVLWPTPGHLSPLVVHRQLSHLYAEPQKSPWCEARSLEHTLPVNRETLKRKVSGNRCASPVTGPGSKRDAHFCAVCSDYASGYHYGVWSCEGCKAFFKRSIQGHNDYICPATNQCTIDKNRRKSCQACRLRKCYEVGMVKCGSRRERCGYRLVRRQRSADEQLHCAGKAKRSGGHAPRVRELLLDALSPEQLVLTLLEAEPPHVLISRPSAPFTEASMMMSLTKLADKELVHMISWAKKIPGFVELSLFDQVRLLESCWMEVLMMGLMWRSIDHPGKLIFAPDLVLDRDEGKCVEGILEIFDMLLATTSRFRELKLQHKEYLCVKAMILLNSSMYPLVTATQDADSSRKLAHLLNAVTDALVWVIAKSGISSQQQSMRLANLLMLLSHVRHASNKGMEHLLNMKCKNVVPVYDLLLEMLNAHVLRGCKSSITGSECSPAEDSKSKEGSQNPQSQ

| Structure (SMILES) | LRRC54 (non-genomic gene) mRNA expression, in words (LRRC54 gene) | PgR (genomic gene) mRNA expression, in words (PgR gene) | other results |
| --- | --- | --- | --- |
| Cc1cc(-c2ccc3c(c2)CC[C@@H]3O)cc(C)c1O [Compound 3, S-5-(4-hydroxy-3,5-dimethylphenyl)-2,3-dihydro-1H-inden-1-ol] | equivalent activities |  |  |
| Cc1cc(-c2ccc3c(c2)CC[C@H]3O)cc(C)c1O [Compound 4, R-5-(4-hydroxy-3,5-dimethylphenyl)-2,3-dihydro-1H-inden-1-ol] | less non-genomic gene activity |  |  |
| COc1c(C)cc(-c2ccc3c(c2)CCC3O)cc1C (centres unmarked) [Compound 5, 5-(4-methoxy-3,5-dimethylphenyl)-2,3-dihydro-1H-inden-1-ol] | marked loss of this non-genomic activity |  |  |
| Cc1cc(-c2ccc3c(c2)CCC3=O)cc(C)c1O [Compound 6, 5-(4-hydroxy-3,5-dimethylphenyl)-2,3-dihydro-1H-inden-1-one] | non-genomic activity is lost |  |  |
| Cc1cc(-c2ccc3c(c2)CCC3Cl)cc(C)c1O (centres unmarked) [Compound 8, 4-(1-chloro-2,3-dihydro-1H-inden-5-yl)-2,6-dimethylphenol] | stimulation of the nongenomic gene (LRRC54), but to a lesser degree than compound 2 |  | ERβ RBA (relative binding affinity) [1]: 0.006 ± 0.001; ERα RBA (relative binding affinity) [2]: 0.001 ± 0; LRRC54 stimulation compared to E2 (LRRC54 gene; FIG. 14): 50% |
| Cc1cc(-c2ccc3c(c2)CCC3)cc(C)c1O [Compound 13, 4-(2,3-dihydro-1H-inden-5-yl)-2 6-dimethylphenol] | some non-genomic activity | strongly stimulate the genomic gene PgR |  |
| Cc1cc(-c2ccc3c(c2)CC=C3)cc(C)c1O [Compound 14, 4-(1H-inden-6-yl)-2,6-dimethylphenol] |  | strongly stimulate the genomic gene PgR |  |
| Cc1cc(-c2ccc3c(c2)C=CC3=O)cc(C)c1O [Compound 18] | increases expression of both the non-genomic and genomic genes | increases expression of both the non-genomic and genomic genes |  |
| C#CC1(O)CCc2cc(-c3cc(C)c(O)c(C)c3)ccc21 (centres unmarked) [Compound 19, 1-ethynyl-5-(4-hydroxy-3,5-dimethylphenyl)-2,3-dihydro-1H-inden-1-ol] |  |  | ERβ RBA (relative binding affinity) [1]: <0.001; ERα RBA (relative binding affinity) [2]: 0.004 ± 0.001 |
| COC1CCc2cc(-c3cc(C)c(O)c(C)c3)ccc21 (centres unmarked) [Compound 22, 4-(1-methoxy-2,3-dihydro-1H-inden-5-yl)-2,6-dimethylphenol] | stimulation of both genomic and nongenomic gene expression is lost | stimulation of both genomic and nongenomic gene expression is lost |  |
| Cc1cc(-c2ccc(CO)cc2)cc(C)c1O [Compound 23] |  |  | ERβ RBA (relative binding affinity) [1]: 0.002 ± 0.001; ERα RBA (relative binding affinity) [2]: 0.002 ± 0.001 |
| Cc1cc(-c2ccc(CO)c(F)c2)cc(C)c1O [Compound 25, 3′-fluoro-4′-(hydroxvmethyl)-3,5-dimethyl-[1,1′-biphenyl]-4-ol] |  |  | ERβ RBA (relative binding affinity) [1]: 0.009 ± 0; ERα RBA (relative binding affinity) [2]: 0.003 ± 0 |
| Cc1cc(-c2ccc(CO)cc2C(F)(F)F)cc(C)c1O [Compound 28] |  |  | ERβ RBA (relative binding affinity) [1]: 0.013 ± 0.002; ERα RBA (relative binding affinity) [2]: 0.008 ± 0.002 |
| COC1CC(=O)c2ccc(-c3cc(C)c(O)c(C)c3)cc21 (centres unmarked) [Compound 29] |  | did not activate PgR above that of vehicle (veh.) |  |
| CC(O)c1ccc(-c2ccccc2)cc1 (centres unmarked) [Compound 31] | both activities are lost | both activities are lost |  |
| Cc1cc([C@H]2CC[C@@]3(C)[C@H](CC[C@@H]3O)C2)cc(C)c1O [Compound 43, (1S,3aR,5S,7aS)-5-(4-hydroxy-3,5-dimethylphenyl)-7a-methyloctahydro-1H-inden-1-ol] |  |  | ERβ RBA (relative binding affinity) [1]: 0.001; ERα RBA (relative binding affinity) [2]: <0.001 |

| Structure (SMILES) | LRRC54 (non-genomic gene) mRNA expression, in words (LRRC54 gene) | PgR (genomic gene) mRNA expression, in words (PgR gene) | other results |
| --- | --- | --- | --- |
| Cc1cc(-c2ccc(CCBr)cc2)cc(C)c1O [Compound 46] | preferentially stimulate LRRC54 better than E2 |  |  |
| Cc1cc(-c2cccc(CCCO)c2)cc(C)c1O [Compound 47, 3′-(3-hydroxypropyl)-3,5-dimethyl-[1,1′-biphenyl]-4-ol] | good stimulation of the non-genomic LRRC54 | stimulate expression of genomic PgR genes well |  |
| Cc1cc(-c2ccc(CCCO)cc2)cc(C)c1O [Compound 48, 4′-(3-hydroxypropyl)-3,5-dimethyl-[1,1′-biphenyl]-4-ol] |  | stimulate expression of genomic PgR genes well |  |
| Cc1cc(-c2cccc(CC(=O)O)c2)cc(C)c1O [Compound 49] | behaves like vehicle | behaves like vehicle |  |
| Cc1cc(-c2ccc3c(c2)CC(F)C3O)cc(C)c1O (centres unmarked) [Compound 50, 2-fluoro-5-(4-hydroxy-3,5-dimethylphenyl)-2,3-dihydro-1H-inden-1-ol] | stimulate both non-genomic LRRC54 and genomic PgR gene expression close to the level that of E2 | stimulate both non-genomic LRRC54 and genomic PgR gene expression close to the level that of E2 |  |
| Cc1cc(-c2ccc3c(c2)CC(Br)C3O)cc(C)c1O (centres unmarked) [Compound 51, 2-bromo-5-(4-hydroxy-3,5-dimethylphenyl)-2,3-dihydro-1H-inden-1-ol] | stimulate both non-genomic LRRC54 and genomic PgR gene expression close to the level that of E2 | stimulate both non-genomic LRRC54 and genomic PgR gene expression close to the level that of E2 |  |
| Cc1cc(-c2ccc3c(c2)CC(Br)(Br)C3O)cc(C)c1O (centres unmarked) [Compound 52, 2,2-dibromo-5-(4-hydroxy-3,5-dimethylphenyl)-2,3-dihydro-1H-inden-1-ol] | little expression of both genes | little expression of both genes |  |
| Cc1cc(-c2ccc3cc(O)ccc3c2)cc(C)c1O [Compound 53] | gene expression pattern equivalent to that of estradiol (E2) | gene expression pattern equivalent to that of estradiol (E2) |  |
| COCc1cc(-c2ccc3c(c2)CCC3O)cc(C)c1O (centres unmarked) [Compound 54, 5-(4-hydroxy-3-methyl-5-methoxymethylphenyl)-2,3-dihydro-1H-inden-1-ol] | little expression of both genes | little expression of both genes |  |
| OCc1cc(-c2ccc3c(c2)CCC3O)cc(CO)c1O (centres unmarked) [Compound 58, 5-(4-hydroxy-3,5-(dihydroxymethyl)phenyl)-2,3-dihydro-1H-inden-1-ol] | increases the expression of the non-genomic LRRC54 gene |  |  |
| OCc1cc(-c2ccccc2)ccc1O [Compound 61, 4-Hydroxy-3-hydroxymethyl-biphenyl] | a little better than vehicle (Veh.) | not at all |  |
| Cc1cc(-c2cc(C)c(O)c(C)c2)cc(C)c1O [Compound 65, 4,4′-Dihydroxy-3,3′,5,5′-tetramethylbiphenyl] | greatly suppresses LRRC54 gene expression | equivalent to that of vehicle (Veh.) |  |
| Cc1cc(C(=C2C3CC4CC(C3)CC2C4)c2ccc(Br)cc2)cc(C)c1O [Compound 66] |  | stimulate PgR gene selectively |  |
| Cc1cc(C(=C2CCCCC2)c2ccc(Br)cc2)cc(C)c1O [Compound 67] |  | stimulate PgR gene selectively |  |
| Cc1cc(-c2cc(C)c(O)c(CO)c2)cc(C)c1O [Compound 68, 3-(Hydroxymethyl)-3′,5,5′-trimethyl-[1,1′-biphenyl]-4,4′-diol] | suppresses LRRC54 gene expression compared to that of the parent compound 59 |  |  |
| Cc1cc(-c2ccc(O)c(CCO)c2)cc(C)c1O [Compound 69, 3′-(2-hydroxyethyl)-3,5-dimethyl-[1,1′-biphenyl]-4,4′-diol] | does not improve the non-genomic LRRC54 gene response |  |  |
